From publication PMC11527646, “Pharmacological blockade of the mast cell MRGPRX2 receptor supports investigation of its relevance in skin disorders” (Frontiers in Immunology, 2024)
Values joined by “and” are separate entries in the source; they are usually repeats but may differ in a detail not shown here. Equal entries are not always repeated. “Also recorded” adds a separate entry of the source.

Experiments:
[1] = Blood-free concentration at end of itch observation period; format: in vivo, mouse; details: 3 mg/kg PO, average ± SD
Method: (§1) Figure 6 Oral treatment with the potent and selective MRGPRX2 antagonist, Compound B (3 mg/kg), blocks Cpd 48/80–induced itch response using human MRGPRX2 knock-in mice. […] Average ± SD blood-free concentration of antagonist measured at end of “itch” observation period was 19 ± 16 nM Compound B.
This study provides pharmacological evidence that MRGPRX2 is solely responsible for mediating an SP response in a human tissue, in this instance, skin. Finally, human MRGPRX2 knock-in mice were used to provide initial proof of target engagement of MRGPRX2 antagonists in the skin using an established behavioral scratching model.

[2] = Pharmacokinetic profile
[3] = tested on: wild-type mice (C57BL6J strain); assay: Cpd 48/80-induced itch behavioral study in wild-type mice; format: in vivo, mouse
Method: On the day of the experiment, animals were allowed to acclimatize to the test chamber for 10 min prior to injection. Mice received a single PO dose of Compound B (or vehicle) as a suspension in 1% methylcellulose at a dose level of 3 mg/kg (dose volume 10 mL/kg). Scratching behavior was monitored over 30 min following a single intra-dermal injection of 10 μL of Cpd 48/80 (10 μg/mL) or vehicle (saline) at 3 h post-dose of the antagonist. A bout of scratching was defined as a hindpaw directed continuous scratching movement at the injection site. The scratching behavior scorer was blinded to treatment.
Supplemental Figure 3: Oral treatment with the potent and selective human MRGPRX2 […]
type mice. The itch behavioral study for wild-type mice (C57BL6J strain) was performed the same way as descripted in the Methods section as for human MRGPRX2 knock-in mice. Compound 48/80 […]
control (18.4 +/- 3.8, n=7) mice (mean +/- SEM; *P < 0.05, Student's t test). As expected, no effect on the scratching behavior (39.8 +/- 12.6, n=6; P=0.795) was observed by oral administration of Compound B to the Compound 48/80 treated mice. […]

[4] = molecular target: T1, D2 receptor (DRD2) (Homo sapiens, UniProt P14416); assay: GPCR selectivity cellular assay; format: cell-based
T1 construct: expressed in transfected cells
Method: (§2) tagonists, with little activity detected on other GPCRs. Antagonist and/or agonist activities of the two compounds were determined in cellular assays for 20 human G-protein coupled receptors (GPCR) beside MRGPRX2. Recombinant over-expression systems in mammalian cells were used for all assays listed in this table. […]
(§3) reported as ‘>’ the highest compound concentration allowed in that assay.
(§4) GPCR Target Name Gene symbol Mode of Activity Compound-A Compound-B […]
(§5) Agonist Activity (EC50 ) or Antagonist Activity (IC50 ), nM […]

[5] = molecular target: T2, H3 receptor (HRH3) (Homo sapiens, UniProt Q9Y5N1); assay: GPCR selectivity cellular assay; format: cell-based; details: Antagonism; read-out: Antagonist Activity (IC50)
T2 construct: expressed in transfected cells
Method: as §2, §3, §4, §5

[6] = molecular target: µ-Receptor (OPRM1) (Homo sapiens, UniProt P35372); assay: GPCR selectivity cellular assay; format: cell-based; details: Agonism; read-out: Agonist Activity (EC50)
Method: as §2, §3, §4, §5

[7] = molecular target: T3, ß2-Adrenoreceptor (ADRB2) (Homo sapiens, UniProt P07550); assay: GPCR selectivity cellular assay; format: cell-based
T3 construct: expressed in transfected cells
Method: as §2, §3, §4, §5

[8] = molecular target: T4, a2C-Adrenoreceptor (ADRA2C) (Homo sapiens, UniProt P18825); assay: GPCR selectivity cellular assay; format: cell-based; details: Agonism; read-out: Agonist Activity (EC50)
T4 construct: expressed in transfected cells
Method: as §2, §3, §4, §5

[9] = molecular target: T5, MRGPRX2 (Homo sapiens, UniProt Q96LB1); assay: Calcium imaging of peritoneal mast cells isolated from human MRGPRX2 KI mice; format: cell-based; details: 100 nM antagonist; Cpd 48/80 1 μg/mL; n ≥ 4
T5 sequence (Q96LB1 1-330): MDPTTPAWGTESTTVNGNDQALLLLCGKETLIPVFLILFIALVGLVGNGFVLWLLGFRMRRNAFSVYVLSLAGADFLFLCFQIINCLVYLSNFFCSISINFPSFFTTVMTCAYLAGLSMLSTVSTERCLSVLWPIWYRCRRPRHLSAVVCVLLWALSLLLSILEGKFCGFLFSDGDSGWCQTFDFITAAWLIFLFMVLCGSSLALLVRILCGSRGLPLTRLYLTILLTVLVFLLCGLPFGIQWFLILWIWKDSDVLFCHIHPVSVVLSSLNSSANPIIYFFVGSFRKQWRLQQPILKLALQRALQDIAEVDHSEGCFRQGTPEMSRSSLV
Method: Mouse peritoneal mast cells were purified and imaged as previously described ([4]). Mast cells were resuspended at 5 × 10^5 to 1 × 10^6 cells/mL in DMEM with 10% FBS and recombinant mouse SCF (25 ng/mL) and plated onto glass cover slips coated with fibronectin (30 µg/mL). For imaging, after 2 h of incubation at 37°C, 5% CO2, mast cells were loaded with Fluo-4 along with 0.02% Pluronic F-127 for 30 min at room temperature, washed three times in calcium imaging buffer (CIB), and used immediately for imaging. Cells were used within 2 h of loading. Cells were identified as responding if the [Ca^2+] rose by at least 50% for >10 s.
as §1

[10] = Agonism, read-out: Agonist Activity (EC50)
[11] = Antagonism, read-out: Antagonist Activity (IC50)

T3 sequence (P07550 whole entry): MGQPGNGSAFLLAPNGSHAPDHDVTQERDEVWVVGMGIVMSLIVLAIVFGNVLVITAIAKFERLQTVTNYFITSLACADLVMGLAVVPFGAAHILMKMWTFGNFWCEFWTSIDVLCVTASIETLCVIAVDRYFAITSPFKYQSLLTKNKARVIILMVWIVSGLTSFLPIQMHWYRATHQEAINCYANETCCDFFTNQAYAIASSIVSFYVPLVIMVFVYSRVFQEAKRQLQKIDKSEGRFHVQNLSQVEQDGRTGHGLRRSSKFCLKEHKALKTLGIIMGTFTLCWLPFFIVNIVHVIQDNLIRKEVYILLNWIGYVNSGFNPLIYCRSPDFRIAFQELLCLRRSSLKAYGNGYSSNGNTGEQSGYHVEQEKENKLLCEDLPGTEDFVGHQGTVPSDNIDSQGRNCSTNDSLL
T1 sequence (P14416 whole entry): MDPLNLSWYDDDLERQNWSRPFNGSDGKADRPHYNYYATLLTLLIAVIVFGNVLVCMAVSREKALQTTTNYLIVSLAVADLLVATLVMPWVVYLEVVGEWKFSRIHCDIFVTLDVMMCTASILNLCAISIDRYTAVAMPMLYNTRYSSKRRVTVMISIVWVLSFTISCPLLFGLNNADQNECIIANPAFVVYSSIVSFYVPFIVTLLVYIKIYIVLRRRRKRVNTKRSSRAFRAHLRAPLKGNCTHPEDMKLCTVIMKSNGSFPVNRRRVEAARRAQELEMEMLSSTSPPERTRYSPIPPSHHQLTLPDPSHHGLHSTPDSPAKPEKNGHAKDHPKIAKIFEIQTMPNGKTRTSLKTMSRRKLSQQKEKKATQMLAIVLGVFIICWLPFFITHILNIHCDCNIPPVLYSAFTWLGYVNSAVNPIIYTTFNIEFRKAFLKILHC
T2 sequence (Q9Y5N1 whole entry): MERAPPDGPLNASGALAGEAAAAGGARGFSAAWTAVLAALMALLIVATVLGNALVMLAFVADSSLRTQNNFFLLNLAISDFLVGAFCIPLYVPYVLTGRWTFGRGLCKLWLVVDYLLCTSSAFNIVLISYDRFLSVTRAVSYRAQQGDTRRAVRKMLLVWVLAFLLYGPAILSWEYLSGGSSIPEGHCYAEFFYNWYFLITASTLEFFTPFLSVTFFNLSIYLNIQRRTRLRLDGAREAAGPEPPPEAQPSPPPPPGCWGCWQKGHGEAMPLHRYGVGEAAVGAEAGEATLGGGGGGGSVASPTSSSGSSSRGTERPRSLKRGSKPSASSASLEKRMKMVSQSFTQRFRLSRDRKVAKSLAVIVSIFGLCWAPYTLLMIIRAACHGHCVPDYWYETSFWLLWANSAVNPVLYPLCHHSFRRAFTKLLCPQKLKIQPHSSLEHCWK
T4 sequence (P18825 whole entry): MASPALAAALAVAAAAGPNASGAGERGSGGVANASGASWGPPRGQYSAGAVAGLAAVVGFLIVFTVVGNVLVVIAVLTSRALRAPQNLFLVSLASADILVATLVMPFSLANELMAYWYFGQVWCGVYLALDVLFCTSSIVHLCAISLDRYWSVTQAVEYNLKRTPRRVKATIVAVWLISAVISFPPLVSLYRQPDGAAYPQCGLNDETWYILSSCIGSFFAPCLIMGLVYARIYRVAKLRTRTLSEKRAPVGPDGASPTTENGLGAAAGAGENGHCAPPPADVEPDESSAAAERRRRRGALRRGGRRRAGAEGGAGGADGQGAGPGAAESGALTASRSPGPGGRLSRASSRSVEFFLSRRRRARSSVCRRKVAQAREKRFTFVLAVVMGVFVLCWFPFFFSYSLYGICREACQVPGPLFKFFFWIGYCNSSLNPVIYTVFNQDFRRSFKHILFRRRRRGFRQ
Sequence of µ-Receptor (OPRM1) (P35372 whole entry): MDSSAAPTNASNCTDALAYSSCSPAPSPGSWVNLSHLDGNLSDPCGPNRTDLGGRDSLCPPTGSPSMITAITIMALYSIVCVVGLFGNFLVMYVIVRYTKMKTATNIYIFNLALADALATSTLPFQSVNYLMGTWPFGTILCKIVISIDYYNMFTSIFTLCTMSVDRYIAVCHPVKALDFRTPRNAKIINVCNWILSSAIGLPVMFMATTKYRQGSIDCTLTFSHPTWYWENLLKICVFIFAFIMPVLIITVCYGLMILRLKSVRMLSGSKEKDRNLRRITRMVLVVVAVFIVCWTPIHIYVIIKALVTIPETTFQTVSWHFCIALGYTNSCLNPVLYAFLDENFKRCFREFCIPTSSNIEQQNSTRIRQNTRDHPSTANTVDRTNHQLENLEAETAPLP

Structure (SMILES): C[C@@H](C(=O)Nc1cnc(Oc2ccc(F)cc2F)cn1)N1CCC(F)(F)[C@@H](c2cc[n+]([O-])cc2)C1 [Compound B]
- Blood-free concentration of antagonist [1]: 19 ± 16 nM and 19 nM
- In vivo PK profile [2]: good in vivo PK profile
- Oral bioavailability ([2]; in vivo, po): good oral bioavailability
- Effect on Cpd 48/80-induced scratching behavior ([3]; 3 mg/kg oral, wild-type mice): did not block; also recorded: no effect was observed
- Scratching counts ([3]; Compound B 3 mg/kg oral in Compound 48/80 treated wild-type mice, mean +/- SEM, n=6): 39.8 +/- 12.6
- EC50 [4, 10]: > 100 µM
- IC50 [4, 11]: > 100 µM
- IC50 [5]: > 50 µM
- EC50 [6]: > 100 µM
- EC50 [7, 10]: > 100 µM
- IC50 [7, 11]: > 100 µM
- EC50 [8]: > 100 µM
- Effect on Cpd 48/80-mediated activation of peritoneal mast cells [9]: completely antagonize
